# Assay results: patent US20050065213A1 (priority 2001, published 2005)
# Read-outs that look alike come from different tables or passages of the source.
# Tests used:
# tubulin [1] = experiment: Tubulin assembly inhibition assay; format: biochemical
# tubulin [2] = experiment: Colchicine competition assay; format: binding
# Text: The compounds have been further tested for their performance in colchicine competition assays, and the results tabulated in Tables 9 to 13.
# K562 cell line = experiment: Cytotoxicity (IC50) assay against the K562 cell line; format: cell-based; settings: for activity (in words): cytotoxicity, qualitative statements; for IC50: Homo sapiens, K562 cell line, read-out: IC50 values in the cytotoxicity tests
# Method: Compounds based on the aurone structure were prepared as conformationally restricted analogues of the chalcones. They were prepared from the appropriate benzofuranone.
# H460 xenograft = H460 xenograft mice, X-Rays plus drug; format: in vivo; settings: X-Ray plus drug treated group, FIG. 6
# Text: Whilst X-Ray treatment was effective immediately after treatment, fresh tumour growth became evident by 36 days.
# [3] = test system: H460 human non small cell lung cells; experiment: H460 xenograft in nude mice; format: in vivo
# [4] = Flow cytometry, percentage of cells in the phases of the cell cycle; format: cell-based; settings: for % Cells G2-M: control 12.08; for % Cells S-phase: control 32.87; for % Cells G0-G1: control 55.05
# Text: Tables 14 and 15 show the results of tubulin assembly assays and flow cytometry studies on selected compounds of the present invention.
# [5] = test system: P388 murine leukaemia cell line; settings: cell line not stated for this statement; cited from earlier work
# [6] = tubulin assembly, corrected values scaled by a factor of 5, read-out: IC50 μM (corrected)
# [7] = tubulin assembly, original experimental value, read-out: IC50 μM (original)
# [8] = tubulin assembly assay, Table 14, read-out: IC(TA)50
IC50 (tubulin [1]; [6]),IC50 (tubulin [1]; [7]),SMILES,"Colchicine competition, Drug:Protein Ratio 1:1 (tubulin [2])","Colchicine competition, Drug:Protein Ratio 10:1 (tubulin [2])",further results
20 µM,4 µM,COc1ccc(C2CC(=O)c3cc(OC)c(OC)c(OC)c32)cc1F (stereo not drawn) [DR59],100,61,
2.4 µM,0.47 µM,"CO/C(=C\c1ccc(OC)c(F)c1)C(=O)c1cc(OC)c(OC)c(OC)c1 [DR14, (Z)-3-(3″-Fluoro-4″-methoxyphenyl)-2-methoxy-1-(3′,4′,5′-trimethoxyphenyl)-2-propen-1-one]",22,8,melting point: 110 to 112 °C
,,"COc1ccc(/C=C(\C)C(=O)c2cc(OC)c(OC)c(OC)c2)cc1OP(=O)([O-])[O-].[Na+].[Na+] [SD174b, Disodium 3′-phosphate salt of (E)-1-(3′-Hydroxy-4′-methoxyphenyl)-2-methyl-3-(3″,4″,5″-trimethoxyphenyl)prop-1-en-3-one]",,,activity (in words) (K562 cell line): potently active
,,COc1ccc(/C=C(\C)C(O)c2cc(OC)c(OC)c(OC)c2)cc1O (stereo not drawn) [MW70],,,IC50 (tubulin [1]; [8]): > 10 µM; % Cells Debris [4]: 15.27%; % Cells G2-M [4]: 23.70%; % Cells S-phase [4]: 32.80%; % Cells G0-G1 [4]: 43.50%
,,COc1ccc(CC(C)C(=O)c2cc(OC)c(OC)c(OC)c2)cc1O (stereo not drawn) [MW71],,,IC50 (tubulin [1]; [8]): 4 µM; % Cells Debris [4]: 19.31%; % Cells G2-M [4]: 28.08%; % Cells S-phase [4]: 36.09%; % Cells G0-G1 [4]: 35.84%
,,COc1ccc(C2CCc3cc(OC)c(OC)c(OC)c32)cc1N (stereo not drawn) [MW82],,,IC50 (tubulin [1]; [8]): > 10 µM; % Cells Debris [4]: 18.58%; % Cells G2-M [4]: 23.34%; % Cells S-phase [4]: 36.26%; % Cells G0-G1 [4]: 40.40%
,,"COc1ccc(C2CC(=O)c3cc(OC)c(OC)c(OC)c32)cc1N (stereo not drawn) [MW74, 3-(3′-Amino-4′-methoxyphenyl)-4,5,6-trimethoxy-1-indanone]",,,IC50 (tubulin [1]; [8]): ~10 µM; % Cells Debris [4]: 12.72%; % Cells G2-M [4]: 29.10%; % Cells S-phase [4]: 33.76%; % Cells G0-G1 [4]: 37.14%
> 100 µM,> 50 µM,COc1ccc(C=C2Oc3cc(OC)c(OC)c(OC)c3C2=O)cc1F [DR24],,,
> 100 µM,> 50 µM,COc1cc2c(c(OC)c1OC)OC(=Cc1ccc(O)c(O)c1)C2=O [DR31],,,
8.5 µM,1.7 µM,"CO/C(=C\c1cc(F)c(OC)c(F)c1)C(=O)c1cc(OC)c(OC)c(OC)c1 [DR15, (Z)-3-(3″,5″-Difluoro-4″-methoxyphenyl)-2-methoxy-1-(3′,4′,5′-trimethoxyphenyl)-2-propen-1-one]",59,41,
,,COc1ccc(/C=C/c2cc(OC)c(OC)c(OC)c2)cc1O [trans-combretastatin A-4],,,cell growth inhibition (in words) [5]: μM range
> 100 µM,25 µM,"COc1ccc(-c2cc(=O)c3cc(OC)c(OC)c(OC)c3o2)cc1O [DR36, 2-(3′-Hydroxy-4′-methoxyphenyl)-6,7,8-trimethoxy-4H-chromen-4-one]",100,43,melting point: 199 to 200 °C
> 100 µM,> 50 µM,COc1ccc(C=C2Oc3c(cc(OC)c(OC)c3OC)C2=O)cc1F [DR28],,,IC50 (K562 cell line): 0.11 µM
> 100 µM,> 50 µM,COc1ccc(C=C2Oc3cc(OC)c(OC)c(OC)c3C2=O)cc1O [DR23],,,
> 100 µM,> 50 µM,COc1ccc(C2CC(O)c3cc(OC)c(OC)c(OC)c32)cc1F (stereo not drawn) [DR60],,,
> 100 µM,> 50 µM,"COc1ccc(-c2cc(=O)c3c(OC)c(OC)c(OC)cc3o2)cc1O [DR33, 2-(3′-Hydroxy-4′-methoxyphenyl)-5,6,7-trimethoxy-4H-chromen-4-one]",,,
,,"COc1ccc(/C=C/C(=O)c2cc(OC)c(OC)c(OC)c2)cc1N [MW65, (E)-3-(3″-Amino-4″-methoxyphenyl)-1-(3′,4′,5′-trimethoxyphenyl)-2-propen-1-one]",,,melting point: 90 to 91 °C; % Cells Debris [4]: 14.10%; % Cells G2-M [4]: 18.52%; % Cells S-phase [4]: 33.18%; % Cells G0-G1 [4]: 48.30%
> 100 µM,22 µM,"COc1ccc(/C=C2\Oc3c(cc(OC)c(OC)c3OC)C2=O)cc1O [DR27, 2-[(Z)-(3′-Hydroxy-4′-methoxyphenyl)methylidene]-5,6,7-trimethoxy-1-benzofuran-3-one]",78,59,melting point: 192 to 193 °C; IC50 (K562 cell line): 0.05 µM
12 µM,2.4 µM,"COc1cc(C(=O)/C(C)=C/c2cc(F)c(OC)c(F)c2)cc(OC)c1OC [DR6, (E)-3-(3″, 5″-Difluoro-4″-methoxyphenyl)-2-methyl-1-(3′, 4′,5′-trimethoxyphenyl)-2-propen-1-one]",33,25,
,,"COc1ccc(/C=C/C(=O)c2cc(OC)c(OC)c(OC)c2)cc1OP(=O)([O-])[O-].[Na+].[Na+] [SD174a, Disodium 3′-phosphate salt of (E)-1-(3′-Hydroxy-4′-methoxyphenyl)-3-(3″,4″,5″-trimethoxyphenyl)prop-1-en-3-one]",,,activity (in words) (K562 cell line): potently active
,,COc1ccc(/C=C(\C)C(=O)c2cc(OC)c(OC)c(OC)c2)cc1[N+](=O)[O-] [MW68],,,IC50 (tubulin [1]; [8]): > 10 µM; % Cells Debris [4]: 11.27%; % Cells G2-M [4]: 28.29%; % Cells S-phase [4]: 35.36%; % Cells G0-G1 [4]: 36.35%
2.3 µM,0.45 µM,"COc1ccc(C=CC(=O)c2ccc(OC)c(OC)c2OC)cc1O [DR8, (E)-3-(3″-Hydroxy-4″-methoxyphenyl)-1-(2′,3′,4′-trimethoxyphenyl)-2-propen-1-one]",,,melting point: 85 to 86 °C

SMILES,IC50 (tubulin [1]; [6]),IC50 (tubulin [1]; [7]),"Colchicine competition, Drug:Protein Ratio 1:1 (tubulin [2])","Colchicine competition, Drug:Protein Ratio 10:1 (tubulin [2])",further results
"COc1ccc(/C=C(\C)C(=O)c2cc(OC)c(OC)c(OC)c2)cc1F [DR5, (E)-3-(3″-Fluoro-4″-methoxyphenyl)-2-methyl-1-(3′,4′,5′-trimethoxyphenyl)-2-propen-1-one]",3.5 µM,0.7 µM,14,6,"activity (in words) (K562 cell line): most active fluorinated analogue; tumour volume / potency with concomitant X-Rays (H460 xenograft): some initial increase in tumour volume between days 27 and 32, though this was followed by subsequent decrease to a steady baseline at day 34; tumour volume / potency with concomitant X-Rays (H460 xenograft; listed as DRA 212): Further improvement in the potency; necrosis in tumour ([3]; 24 hours after treatment with 0.75 MTD): necrosis in H460 cancer cells; adverse side effects on healthy surrounding tissue ([3]; H460 xenograft nude mice): no adverse side effects on healthy surrounding tissue"
"CO/C(=C\c1ccc(OC)c(O)c1)C(=O)c1cc(OC)c(OC)c(OC)c1 [DR13, (Z)-3-(3″-Hydroxy-4″-methoxyphenyl)-2-methoxy-1-(3′,4′,5′-timethoxyphenyl)-2-propen-1-one]",2.6 µM,0.51 µM,12,5,melting point: 120 to 122 °C
